Results published in PMC10536189 (Microorganisms, 2023).
Entries after “also recorded” stand apart in the source; their conditions may differ.

System: multidrug-resistant (MDR) Mycobacterium tuberculosis
Type: cell-based
Conditions: Peptide 14D at 1 µg/mL; low inoculum

Substance: wkivfwwrr-CONH2 [Peptide 14D]
- Effect on growth of multidrug-resistant MTB: reducing the lag time before growth starts; also recorded: increased growth
